One may read the pIC50 as the negative decadic logarithm of the IC50, by convention in mol/L.

The results in this text go back to US11207312B2, “Metallo-beta-lactamase inhibitors and methods of use thereof” (priority 2017, dated 2021).

Data set [1] concerns P. aeruginosa MB9799 (efflux-, IMP-1 plasmid). In kind it is cell-based, Pseudomonas aeruginosa. The following applies: efflux − (MB9799) strain; imipenem at 2 μg/mL; in the presence of a class A, C, D serine β-lactamase inhibitor closely related to relebactam. Put shortly: (§1)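 PAO1-derived isogenic pair (oprD+, inducible AmpC), efflux+ MB5919 or efflux− MB5890 parent, carrying an electroporated IMP-1 plasmid from a clinical isolate. Microbroth MIC with fixed imipenem and/or ceftazidime (usually CLSI breakpoint) plus fixed class A/C inhibitor; MBL inhibitor serially titrated, concentration restoring susceptibility recorded.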

A further data set addresses NDM-1 (Klebsiella pneumoniae, UniProt C7C422). In words: biochemical. Type of data set: biochemical. To be noted: CCF2-FA fluorescence assay, 2 hours at 25° C. In outline:
(§2)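 In pH 7 phosphate buffer (100 mM) with 10 μM ZnSO4 and 0.005% Tween-20, CCF2-FA hydrolysis (1.25 μM) by 1 pM NDM-1, 2 pM IMP-1 or 30 pM VIM-1 was run 2 h at 25° C with inhibitor from 20 to 0.00063 μM. Ex 405/em 460 nm signal fitted to a 4-parameter curve for IC50.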

In data set [2] the test system is P. aeruginosa MB9798 (efflux+, IMP-1 plasmid). The following applies: for MB9798 MITC95 P. aeruginosa uM Efflux WT: efflux + (MB9798) strain, imipenem at 2 μg/mL, in the presence of a class A, C, D serine β-lactamase inhibitor closely related to relebactam; for Efflux ratio: fold difference between efflux+ (MB9798) and efflux− (MB9799) strains. Put shortly:
as §1

Data set [3] concerns Serratia marcescens expressing IMP-1 (CL5741). In kind it is cell-based. The following applies: with imipenem 1 μg/ml; 95% inhibition of bacterial growth. In outline: (§3)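 Imipenem 1 μg/ml + inhibitor titration in cation-adjusted MHB (1.1× stock medium); overnight-cultured colonies suspended in saline, diluted 1:100. 35 °C, 22–24 h; absorbance read. MITC95 = lowest compound conc giving 95% growth inhibition.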

Data set [4] relates to Klebsiella pneumoniae expressing VIM-1 (IHMA599644). In kind it is cell-based. To be noted: with imipenem 1 μg/ml; 95% inhibition of bacterial growth. In outline:
as §3

Data set [5] deals with Escherichia coli expressing NDM-1 (CLB30016). In kind it is cell-based. To be noted: with imipenem 1 μg/ml; 95% inhibition of bacterial growth. In outline: as §3
A further data set has as its target VIM-2 (Escherichia coli, UniProt Q5U7L7). The experiment in a line: biochemical. To be noted: CCF2-FA fluorescence assay; read-out: VIM2 IC50.
The target in another data set is VIM-1 (Pseudomonas aeruginosa (strain ATCC 15692 / DSM 22644 / CIP 104116 / JCM 14847 / LMG 12228 / 1C / PRS 101 / PAO1), UniProt A0A0F7KYQ8). In words: biochemical. To be noted: CCF2-FA fluorescence assay, 2 hours at 25° C.; read-out: VIM1 IC50. Put shortly: as §2
The target of another data set is IMP-1 (Serratia marcescens, UniProt P52699). In words: biochemical. To be noted: CCF2-FA fluorescence assay, 2 hours at 25° C.; read-out: IMP1 IC50. In outline: as §2

pIC50: −log10 of the molar value.

Sequence of NDM-1 (C7C422 whole entry, looked up, species assumed): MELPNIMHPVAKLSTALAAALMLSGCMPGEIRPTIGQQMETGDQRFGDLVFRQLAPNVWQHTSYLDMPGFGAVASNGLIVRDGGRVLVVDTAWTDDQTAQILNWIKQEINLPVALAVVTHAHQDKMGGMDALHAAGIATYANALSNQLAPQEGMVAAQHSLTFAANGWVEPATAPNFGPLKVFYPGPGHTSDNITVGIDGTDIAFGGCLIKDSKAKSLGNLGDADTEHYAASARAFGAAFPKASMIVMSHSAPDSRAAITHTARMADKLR
Sequence of IMP-1 (P52699 whole entry, looked up, species assumed): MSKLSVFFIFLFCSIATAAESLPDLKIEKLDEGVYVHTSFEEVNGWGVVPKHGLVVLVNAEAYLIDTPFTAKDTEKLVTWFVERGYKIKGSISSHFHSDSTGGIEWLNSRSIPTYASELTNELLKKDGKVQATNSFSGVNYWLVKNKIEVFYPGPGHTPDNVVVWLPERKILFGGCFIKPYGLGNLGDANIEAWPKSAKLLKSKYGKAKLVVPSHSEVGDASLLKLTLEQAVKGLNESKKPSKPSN

Consider `NC[C@@H](O)CNS(=O)(=O)c1ccc(N2CCCN(CCO)CC2)c(-c2nn[nH]n2)c1S(N)(=O)=O` [Example 23, (R)-N^1-(3-amino-2-hydroxypropyl)-4-(4-(2-hydroxyethyl)-1,4-diazepan-1-yl)-3-(2H-tetrazol-5-yl)benzene-1,2-disulfonamide], for which the “MB9799 MITC95 P. aeruginosa uM Efflux Mutant” value in data set [1] worked out at 1.56 µM. The pIC50 on NDM-1 is 7.71; on VIM-2, 8.00; on VIM-1, 8.83; on IMP-1, 7.39. Also, the “MB9798 MITC95 P. aeruginosa uM Efflux WT” value in data set [2] is 3.13 µM. Also, the Efflux ratio in data set [2] stood at 2.00. In addition, the “CL5741 S. marcescens MITC95 IMP” value in data set [3] is 1.56 µM. For the same compound, in data set [4], the “IHMA599644 K. pneumoniae MITC95 VIM” value turned out to be 0.78 µM. Moreover, the “CLB30016 E. coli MITC95 NDM” value in data set [5] was found to be 0.39 µM.
Consider `NCCC1CCN(c2ccc(S(=O)(=O)NC[C@H](O)CN)c(S(N)(=O)=O)c2-c2nn[nH]n2)CC1` [Example 24, (R)-N^1-(3-amino-2-hydroxypropyl)-4-(4-(2-aminoethyl)piperidin-1-yl)-3-(2H-tetrazol-5-yl)benzene-1,2-disulfonamide], for which the “MB9799 MITC95 P. aeruginosa uM Efflux Mutant” value in [1] was 1.56 µM. Also, the pIC50 at NDM-1 was 8.29; on VIM-2, 8.25; on VIM-1 it was 9.35; at IMP-1 it was 8.24. Also, the “MB9798 MITC95 P. aeruginosa uM Efflux WT” value in data set [2] amounted to 1.56 µM. The Efflux ratio in [2] is on record as 1.00. In addition, in [3], the “CL5741 S. marcescens MITC95 IMP” value stood at 3.13 µM. For the same compound, the “IHMA599644 K. pneumoniae MITC95 VIM” value in data set [4] was determined as 6.25 µM. In data set [5], the “CLB30016 E. coli MITC95 NDM” value was 1.56 µM.
For the compound `NC[C@@H](O)CNS(=O)(=O)c1ccc(N2CCC(CC(N)=O)CC2)c(-c2nn[nH]n2)c1S(N)(=O)=O` [Example 25, (R)-2-(1-(4-(N-(3-amino-2-hydroxypropyl)sulfamoyl)-3-sulfamoyl-2-(2H-tetrazol-5-yl)phenyl)piperidin-4-yl)acetamide], in [1], the “MB9799 MITC95 P. aeruginosa uM Efflux Mutant” value was 3.13 µM. Moreover, the pIC50 is 9.27 against NDM-1, 9.13 at VIM-2, 9.77 on VIM-1 and 9.41 at IMP-1. For the same compound, the “MB9798 MITC95 P. aeruginosa uM Efflux WT” value in data set [2] is 3.13 µM. For the same compound, the Efflux ratio in [2] stood at 1.00. Moreover, the “CL5741 S. marcescens MITC95 IMP” value in data set [3] stood at 6.25 µM. Also, the “IHMA599644 K. pneumoniae MITC95 VIM” value in data set [4] came out at 6.25 µM. Moreover, the “CLB30016 E. coli MITC95 NDM” value in [5] is 3.13 µM.
On to `NC[C@@H](O)CNS(=O)(=O)c1ccc(N2CCC(CCn3cccn3)CC2)c(-c2nn[nH]n2)c1S(N)(=O)=O` [Example 27, (R)-4-(4-(2-(1H-pyrazol-1-yl)ethyl)piperidin-1-yl)-N^1-(3-amino-2-hydroxypropyl)-3-(2H-tetrazol-5-yl)benzene-1,2-disulfonamide], for which the “MB9799 MITC95 P. aeruginosa uM Efflux Mutant” value in data set [1] amounted to 1.56 µM. Besides, the pIC50 against NDM-1 is 10.15; on VIM-2, 9.74; at VIM-1 it was 10.22; on IMP-1, 10.30. The “MB9798 MITC95 P. aeruginosa uM Efflux WT” value in data set [2] came out at 25.00 µM. The Efflux ratio in data set [2] turned out to be 15.99. Further, the “CL5741 S. marcescens MITC95 IMP” value in data set [3] came out at 3.13 µM. In addition, the “IHMA599644 K. pneumoniae MITC95 VIM” value in data set [4] came to 6.25 µM. Further, the “CLB30016 E. coli MITC95 NDM” value in data set [5] amounted to 3.13 µM.
`NS(=O)(=O)c1c(S(=O)(=O)C2CNC2)ccc(N2CCC(O)CC2)c1-c1nnn[nH]1` [Example 31, 6-(azetidin-3-ylsulfonyl)-3-(4-hydroxypiperidin-1-yl)-2-(1H-tetrazol-5-yl)benzenesulfonamide]: in [1], the “MB9799 MITC95 P. aeruginosa uM Efflux Mutant” value turned out to be 1.56 µM. The pIC50 at NDM-1 is 8.78; at VIM-2 it was 8.47; at VIM-1 it was 9.05; at IMP-1 it was 8.72. Further, in data set [2], the “MB9798 MITC95 P. aeruginosa uM Efflux WT” value was 6.25 µM. Moreover, the Efflux ratio in data set [2] amounted to 4.00. Besides, the “CL5741 S. marcescens MITC95 IMP” value in data set [3] came to 3.13 µM. In addition, the “IHMA599644 K. pneumoniae MITC95 VIM” value in data set [4] was determined as 3.13 µM. The “CLB30016 E. coli MITC95 NDM” value in data set [5] was 1.56 µM.
Turning to `NCC1CCN(c2ccc(S(=O)(=O)NC[C@H](O)CN)c(S(N)(=O)=O)c2-c2nnn[nH]2)CC1` [Example 34], in data set [1], the “MB9799 MITC95 P. aeruginosa uM Efflux Mutant” value is 0.20 µM. The pIC50 at NDM-1 was 8.69; at VIM-2, 8.46; on VIM-1 it was 9.74; at IMP-1, 8.39. Further, the “MB9798 MITC95 P. aeruginosa uM Efflux WT” value in data set [2] came to 0.39 µM. Further, the Efflux ratio in data set [2] was 2.00. Besides, in [3], the “CL5741 S. marcescens MITC95 IMP” value was found to be 0.39 µM. Also, the “IHMA599644 K. pneumoniae MITC95 VIM” value in data set [4] came out at 0.39 µM. Also, the “CLB30016 E. coli MITC95 NDM” value in data set [5] came to 0.39 µM.
With `NCCNS(=O)(=O)c1ccc(N2CCC(CN)CC2)c(-c2nnn[nH]2)c1S(N)(=O)=O` [Example 35, N1-(2-aminoethyl)-4-(4-(aminomethyl)piperidin-1-yl)-3-(1H-tetrazol-5-yl)benzene-1,2-disulfonamide], in data set [1], the “MB9799 MITC95 P. aeruginosa uM Efflux Mutant” value worked out at 0.78 µM. In addition, the pIC50 against NDM-1 is 8.44; at VIM-2 it was 8.17; at VIM-1, 9.49; on IMP-1, 8.29. Besides, the “MB9798 MITC95 P. aeruginosa uM Efflux WT” value in [2] amounted to 0.78 µM. Besides, the Efflux ratio in data set [2] is 1.00. Also, the “CL5741 S. marcescens MITC95 IMP” value in [3] turned out to be 0.78 µM. In data set [4], the “IHMA599644 K. pneumoniae MITC95 VIM” value was found to be 3.13 µM. The “CLB30016 E. coli MITC95 NDM” value in data set [5] amounted to 0.39 µM.
Regarding `C[C@H](CN)NS(=O)(=O)c1ccc(N2CCC(CN)CC2)c(-c2nnn[nH]2)c1S(N)(=O)=O` [Example 36, (R)-4-(4-(aminomethyl)piperidin-1-yl)-N1-(1-aminopropan-2-yl)-3-(1H-tetrazol-5-yl)benzene-1,2-disulfonamide], the “MB9799 MITC95 P. aeruginosa uM Efflux Mutant” value in [1] was 0.65 µM. The pIC50 at NDM-1 was 9.35; on VIM-2 it was 8.59; on VIM-1, 10.00; at IMP-1, 8.74. Besides, the “MB9798 MITC95 P. aeruginosa uM Efflux WT” value in [2] turned out to be 0.91 µM. In addition, the Efflux ratio in data set [2] is recorded as 1.40. For the same compound, the “CL5741 S. marcescens MITC95 IMP” value in data set [3] came out at 1.30 µM. Also, the “IHMA599644 K. pneumoniae MITC95 VIM” value in [4] was determined as 1.30 µM. Besides, the “CLB30016 E. coli MITC95 NDM” value in data set [5] turned out to be 0.65 µM.
Regarding `NCC1CCN(c2ccc(S(=O)(=O)NC[C@@H](O)CN)c(S(N)(=O)=O)c2-c2nnn[nH]2)CC1` [Example 37, (S)-N1-(3-amino-2-hydroxypropyl)-4-(4-(aminomethyl)piperidin-1-yl)-3-(1H-tetrazol-5-yl)benzene-1,2-disulfonamide], the “MB9799 MITC95 P. aeruginosa uM Efflux Mutant” value in data set [1] was determined as 0.78 µM. The pIC50 was 8.89 against NDM-1, 8.68 at VIM-2, 9.96 on VIM-1 and 8.52 on IMP-1. For the same compound, in data set [2], the “MB9798 MITC95 P. aeruginosa uM Efflux WT” value stood at 0.78 µM. The Efflux ratio in [2] is 1.00. For the same compound, in data set [3], the “CL5741 S. marcescens MITC95 IMP” value was 0.78 µM. Moreover, in data set [4], the “IHMA599644 K. pneumoniae MITC95 VIM” value was found to be 0.78 µM. For the same compound, the “CLB30016 E. coli MITC95 NDM” value in data set [5] was found to be 0.39 µM.
In the case of `NC[C@@H](O)CNS(=O)(=O)c1ccc(N2CCC[C@@H](CN)C2)c(-c2nnn[nH]2)c1S(N)(=O)=O` [Example 38, N1-((R)-3-amino-2-hydroxypropyl)-4-((S)-3-(aminomethyl)piperidin-1-yl)-3-(1H-tetrazol-5-yl)benzene-1,2-disulfonamide], in data set [1], the “MB9799 MITC95 P. aeruginosa uM Efflux Mutant” value is 0.78 µM. The negative logarithm of the IC50 (pIC50) was 8.20 against NDM-1, 8.68 at VIM-2, 9.17 on VIM-1 and 7.69 at IMP-1. The “MB9798 MITC95 P. aeruginosa uM Efflux WT” value in data set [2] amounted to 3.13 µM. Further, the Efflux ratio in data set [2] turned out to be 4.00. The “CL5741 S. marcescens MITC95 IMP” value in data set [3] was 0.78 µM. Also, the “IHMA599644 K. pneumoniae MITC95 VIM” value in data set [4] amounted to 0.78 µM. Also, the “CLB30016 E. coli MITC95 NDM” value in data set [5] worked out at 0.20 µM.
